The source of these data is BindingDB's records for doi:10.1002/cbic.200800600 (Parc De Recerca Biomedica De Barcelona, 2009).

Holding throughout (test): In Vitro Kinase Assay
Settings in all cases: pH 7.5

One experiment deals with Angiopoietin-1 receptor (Homo sapiens, UniProt Q02763). Here is the method:
(§1) The IC50 for the different compounds was determined with Invitrogen Z'-LYTE kinase assay kit Ser/Thr 1 peptide PV3174 by following the manufacturer's instructions. To determine the IC50 of receptor tyrosine kinase, an assay based on the ELISA principle with kinases from Biomol (N-terminally fused to GST), POD-coupled antibody from Calbiochem (PY20)) and BM chem chemiluminescence ELISA substrate from Roche was performed.

Another experiment concerns the target T1, Aurora kinase A (Homo sapiens, UniProt O14965).
T1 sequence (O14965 whole entry): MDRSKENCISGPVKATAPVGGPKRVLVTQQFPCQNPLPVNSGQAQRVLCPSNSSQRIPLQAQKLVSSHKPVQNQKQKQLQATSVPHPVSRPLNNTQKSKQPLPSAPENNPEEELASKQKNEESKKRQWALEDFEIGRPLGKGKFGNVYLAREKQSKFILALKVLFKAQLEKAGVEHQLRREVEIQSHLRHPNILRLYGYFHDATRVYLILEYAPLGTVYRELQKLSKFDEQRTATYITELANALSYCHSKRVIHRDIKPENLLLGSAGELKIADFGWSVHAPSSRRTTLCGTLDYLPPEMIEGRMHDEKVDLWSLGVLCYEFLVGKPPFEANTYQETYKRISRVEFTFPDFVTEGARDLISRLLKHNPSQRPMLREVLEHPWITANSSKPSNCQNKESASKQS
Here is the method:
as §1

The target of a further experiment is Aurora kinase B (Homo sapiens, UniProt Q96GD4). The method, then: as §1
In experiment [1] the target is Epidermal growth factor receptor (Homo sapiens, UniProt P00533). Here is the method: as §1
In experiment [2] the target is Fibroblast growth factor receptor 1 (Homo sapiens, UniProt P11362). The method, then:
as §1

For experiment [3], the target named is Insulin-like growth factor 1 receptor (Homo sapiens, UniProt P08069). The method, then:
as §1

Experiment [4] concerns the target Vascular endothelial growth factor receptor 2 (Homo sapiens, UniProt P35968). Here is the method:
as §1

Experiment [5] has as its target Vascular endothelial growth factor receptor 3 (Homo sapiens, UniProt P35916). The method, then: as §1

Chain of Vascular endothelial growth factor receptor 3 (P35916 whole entry): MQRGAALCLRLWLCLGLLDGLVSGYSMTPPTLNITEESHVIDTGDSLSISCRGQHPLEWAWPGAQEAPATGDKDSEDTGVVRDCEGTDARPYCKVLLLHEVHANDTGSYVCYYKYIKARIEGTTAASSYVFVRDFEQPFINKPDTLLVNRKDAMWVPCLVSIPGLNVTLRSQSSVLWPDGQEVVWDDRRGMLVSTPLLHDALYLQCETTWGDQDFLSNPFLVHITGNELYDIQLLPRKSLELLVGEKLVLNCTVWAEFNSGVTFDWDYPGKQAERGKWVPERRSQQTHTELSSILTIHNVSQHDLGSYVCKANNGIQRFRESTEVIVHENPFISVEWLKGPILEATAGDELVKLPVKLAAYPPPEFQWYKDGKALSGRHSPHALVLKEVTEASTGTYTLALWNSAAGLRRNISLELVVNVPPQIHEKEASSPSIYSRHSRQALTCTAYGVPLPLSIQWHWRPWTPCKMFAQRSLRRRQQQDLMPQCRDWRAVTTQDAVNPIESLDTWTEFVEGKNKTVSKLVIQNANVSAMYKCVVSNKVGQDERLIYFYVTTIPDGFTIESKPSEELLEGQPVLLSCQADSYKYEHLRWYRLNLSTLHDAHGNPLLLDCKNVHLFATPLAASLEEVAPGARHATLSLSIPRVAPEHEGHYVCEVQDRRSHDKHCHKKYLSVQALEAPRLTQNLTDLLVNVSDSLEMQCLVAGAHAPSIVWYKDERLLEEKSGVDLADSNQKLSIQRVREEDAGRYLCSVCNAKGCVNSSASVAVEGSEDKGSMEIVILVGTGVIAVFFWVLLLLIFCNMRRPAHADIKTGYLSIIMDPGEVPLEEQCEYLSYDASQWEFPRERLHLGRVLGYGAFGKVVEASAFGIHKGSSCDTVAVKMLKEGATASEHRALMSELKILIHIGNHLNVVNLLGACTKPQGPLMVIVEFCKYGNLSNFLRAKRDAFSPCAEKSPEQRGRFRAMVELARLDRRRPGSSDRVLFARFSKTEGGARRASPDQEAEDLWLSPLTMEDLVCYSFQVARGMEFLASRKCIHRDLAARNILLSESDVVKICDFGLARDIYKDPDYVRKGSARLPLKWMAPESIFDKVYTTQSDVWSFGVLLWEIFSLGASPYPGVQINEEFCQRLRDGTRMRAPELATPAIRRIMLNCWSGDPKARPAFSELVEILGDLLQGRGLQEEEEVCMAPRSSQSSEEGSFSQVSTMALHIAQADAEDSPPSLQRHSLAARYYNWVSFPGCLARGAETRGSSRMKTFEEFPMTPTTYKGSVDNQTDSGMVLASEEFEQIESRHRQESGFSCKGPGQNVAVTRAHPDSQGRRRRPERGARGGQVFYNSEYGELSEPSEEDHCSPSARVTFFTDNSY
Chain of Fibroblast growth factor receptor 1 (P11362 whole entry): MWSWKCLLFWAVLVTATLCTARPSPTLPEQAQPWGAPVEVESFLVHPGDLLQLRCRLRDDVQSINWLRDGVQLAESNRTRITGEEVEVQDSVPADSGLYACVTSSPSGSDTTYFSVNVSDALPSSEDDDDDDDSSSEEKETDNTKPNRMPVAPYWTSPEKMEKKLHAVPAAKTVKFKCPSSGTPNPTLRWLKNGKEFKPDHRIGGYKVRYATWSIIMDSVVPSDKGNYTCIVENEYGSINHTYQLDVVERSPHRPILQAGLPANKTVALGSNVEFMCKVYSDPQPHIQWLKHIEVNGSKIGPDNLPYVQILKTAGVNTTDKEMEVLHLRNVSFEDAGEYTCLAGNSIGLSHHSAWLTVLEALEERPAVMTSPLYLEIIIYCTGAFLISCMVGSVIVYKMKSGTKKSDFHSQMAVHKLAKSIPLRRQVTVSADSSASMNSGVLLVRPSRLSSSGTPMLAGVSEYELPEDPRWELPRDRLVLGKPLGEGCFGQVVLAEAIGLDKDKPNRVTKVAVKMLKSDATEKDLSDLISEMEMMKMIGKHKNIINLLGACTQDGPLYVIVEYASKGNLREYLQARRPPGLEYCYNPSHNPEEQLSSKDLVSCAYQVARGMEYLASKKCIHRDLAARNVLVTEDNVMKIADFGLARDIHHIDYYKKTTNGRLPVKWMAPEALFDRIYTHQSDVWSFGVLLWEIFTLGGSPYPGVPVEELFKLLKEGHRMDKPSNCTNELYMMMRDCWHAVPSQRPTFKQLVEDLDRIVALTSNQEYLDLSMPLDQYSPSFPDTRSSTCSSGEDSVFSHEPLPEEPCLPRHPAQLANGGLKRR
Chain of Insulin-like growth factor 1 receptor (P08069 31-736 limits assumed): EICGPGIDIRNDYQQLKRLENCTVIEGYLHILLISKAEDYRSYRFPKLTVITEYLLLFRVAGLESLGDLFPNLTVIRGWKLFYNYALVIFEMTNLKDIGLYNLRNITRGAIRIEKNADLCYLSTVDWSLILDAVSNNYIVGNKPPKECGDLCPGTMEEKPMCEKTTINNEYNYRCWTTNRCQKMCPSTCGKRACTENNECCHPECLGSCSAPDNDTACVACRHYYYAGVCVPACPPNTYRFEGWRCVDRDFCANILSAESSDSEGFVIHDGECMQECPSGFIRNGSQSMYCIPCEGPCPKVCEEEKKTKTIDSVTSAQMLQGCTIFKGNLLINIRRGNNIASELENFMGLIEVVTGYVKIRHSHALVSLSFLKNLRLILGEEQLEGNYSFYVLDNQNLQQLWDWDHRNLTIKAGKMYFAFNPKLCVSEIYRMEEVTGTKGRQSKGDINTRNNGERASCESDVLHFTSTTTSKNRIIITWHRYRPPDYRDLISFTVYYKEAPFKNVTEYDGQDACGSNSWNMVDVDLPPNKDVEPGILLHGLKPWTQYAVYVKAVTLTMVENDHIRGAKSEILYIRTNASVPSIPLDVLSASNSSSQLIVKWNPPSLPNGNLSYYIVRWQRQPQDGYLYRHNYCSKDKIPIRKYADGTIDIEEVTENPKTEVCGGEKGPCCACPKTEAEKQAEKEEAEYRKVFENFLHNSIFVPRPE
Chain of Insulin-like growth factor 1 receptor (P08069 741-1367 limits assumed): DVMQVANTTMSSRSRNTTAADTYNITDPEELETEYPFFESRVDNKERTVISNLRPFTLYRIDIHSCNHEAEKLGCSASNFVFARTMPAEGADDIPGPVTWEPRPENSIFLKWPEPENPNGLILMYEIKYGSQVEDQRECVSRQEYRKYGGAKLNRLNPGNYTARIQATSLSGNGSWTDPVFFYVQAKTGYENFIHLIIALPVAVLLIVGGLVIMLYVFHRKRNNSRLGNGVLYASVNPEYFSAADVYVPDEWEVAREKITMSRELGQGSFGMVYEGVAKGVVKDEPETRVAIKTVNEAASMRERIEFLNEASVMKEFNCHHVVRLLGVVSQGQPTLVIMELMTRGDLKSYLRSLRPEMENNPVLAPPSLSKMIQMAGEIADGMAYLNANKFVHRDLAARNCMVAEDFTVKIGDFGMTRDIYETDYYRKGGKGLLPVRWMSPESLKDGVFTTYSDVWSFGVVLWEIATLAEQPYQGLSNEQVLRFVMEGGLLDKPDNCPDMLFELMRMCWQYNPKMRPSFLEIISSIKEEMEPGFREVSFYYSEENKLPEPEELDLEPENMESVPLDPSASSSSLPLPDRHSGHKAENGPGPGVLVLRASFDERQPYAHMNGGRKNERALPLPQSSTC
Chain of Aurora kinase B (Q96GD4 whole entry): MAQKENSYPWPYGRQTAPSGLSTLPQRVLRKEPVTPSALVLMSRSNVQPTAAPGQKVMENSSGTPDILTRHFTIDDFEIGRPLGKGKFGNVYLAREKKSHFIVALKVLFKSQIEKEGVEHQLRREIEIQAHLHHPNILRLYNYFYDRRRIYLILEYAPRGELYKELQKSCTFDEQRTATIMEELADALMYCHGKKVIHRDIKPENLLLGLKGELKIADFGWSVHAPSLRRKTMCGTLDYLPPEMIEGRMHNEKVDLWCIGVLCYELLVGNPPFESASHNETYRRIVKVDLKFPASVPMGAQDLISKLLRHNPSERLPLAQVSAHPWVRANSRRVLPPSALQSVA
Chain of Epidermal growth factor receptor (P00533 whole entry): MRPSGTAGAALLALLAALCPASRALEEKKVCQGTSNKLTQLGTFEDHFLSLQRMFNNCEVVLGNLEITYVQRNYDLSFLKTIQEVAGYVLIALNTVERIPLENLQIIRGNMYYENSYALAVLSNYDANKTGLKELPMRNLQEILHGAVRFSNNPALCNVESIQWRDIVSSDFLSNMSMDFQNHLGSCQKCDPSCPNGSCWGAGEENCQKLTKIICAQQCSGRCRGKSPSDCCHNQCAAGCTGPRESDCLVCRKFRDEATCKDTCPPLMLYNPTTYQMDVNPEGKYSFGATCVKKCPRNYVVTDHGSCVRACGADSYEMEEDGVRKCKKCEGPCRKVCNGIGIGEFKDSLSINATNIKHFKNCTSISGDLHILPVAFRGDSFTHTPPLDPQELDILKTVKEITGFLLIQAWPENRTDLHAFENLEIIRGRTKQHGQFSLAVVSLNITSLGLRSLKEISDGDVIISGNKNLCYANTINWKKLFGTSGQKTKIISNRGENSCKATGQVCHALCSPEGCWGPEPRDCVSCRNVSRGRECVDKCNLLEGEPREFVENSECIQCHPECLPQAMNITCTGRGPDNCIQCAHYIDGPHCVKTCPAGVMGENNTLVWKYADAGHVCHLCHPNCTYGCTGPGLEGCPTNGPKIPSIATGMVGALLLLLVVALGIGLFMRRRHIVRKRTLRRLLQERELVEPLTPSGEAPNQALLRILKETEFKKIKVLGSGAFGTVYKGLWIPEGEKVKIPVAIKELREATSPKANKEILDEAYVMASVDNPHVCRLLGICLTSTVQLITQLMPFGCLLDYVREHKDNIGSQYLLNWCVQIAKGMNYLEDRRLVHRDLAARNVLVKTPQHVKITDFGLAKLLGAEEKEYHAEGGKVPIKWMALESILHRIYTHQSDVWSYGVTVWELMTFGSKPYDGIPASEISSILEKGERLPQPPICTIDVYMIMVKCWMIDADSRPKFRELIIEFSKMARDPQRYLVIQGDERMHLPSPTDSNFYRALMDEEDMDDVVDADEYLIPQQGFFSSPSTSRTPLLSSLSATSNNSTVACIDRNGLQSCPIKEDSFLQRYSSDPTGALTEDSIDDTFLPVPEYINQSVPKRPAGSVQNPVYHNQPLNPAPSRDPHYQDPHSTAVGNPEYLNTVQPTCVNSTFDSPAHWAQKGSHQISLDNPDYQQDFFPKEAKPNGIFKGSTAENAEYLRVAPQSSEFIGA

As for `CC(C)Nc1nc(-c2ccco2)nc2ccc(C#CCO)cc12` [TC-28], the concentration for half-maximal inhibition (IC50) (commonly the concentration at which inhibition is half-maximal) is more than 100 µM on Angiopoietin-1 receptor; 2.7 µM on Aurora kinase A; more than 100 µM on Aurora kinase B; more than 100 µM in experiment [1]; more than 100 µM in experiment [2]; more than 100 µM in experiment [3]. Further, the IC50 in experiment [4] and in experiment [5] was more than 100 µM throughout.

On to `CC(C)Nc1nc(-c2ccco2)nc2ccc(C=CC(C)(C)O)cc12` [TC-34], for which the 50% inhibitory concentration (IC50) at Angiopoietin-1 receptor is more than 100 µM; on Aurora kinase A, 1.9 µM; on Aurora kinase B it was 16.2 µM; in experiment [1], more than 100 µM; in experiment [2], more than 100 µM; in experiment [3], 41.5 µM. This compound also returned an IC50 in experiment [5] of 4.2 µM.
